This is an account of results in patent publication US20040097574A1, “Glucocorticoid mimetics, methods of making them, pharmaceutical compositions, and uses thereof” (Boehringer Ingelheim Pharmaceuticals, Inc., priority 2002, published 2004).

What is called IC50 is the point on the concentration scale where inhibition reaches its midpoint.

Experiment [1] has as its target T1, human glucocorticoid receptor (GR) complex (Homo sapiens, UniProt P04150).
T1 construct: made in house; host or cells: insect expression system (baculovirus lysate)
T1 sequence (P04150 1-777): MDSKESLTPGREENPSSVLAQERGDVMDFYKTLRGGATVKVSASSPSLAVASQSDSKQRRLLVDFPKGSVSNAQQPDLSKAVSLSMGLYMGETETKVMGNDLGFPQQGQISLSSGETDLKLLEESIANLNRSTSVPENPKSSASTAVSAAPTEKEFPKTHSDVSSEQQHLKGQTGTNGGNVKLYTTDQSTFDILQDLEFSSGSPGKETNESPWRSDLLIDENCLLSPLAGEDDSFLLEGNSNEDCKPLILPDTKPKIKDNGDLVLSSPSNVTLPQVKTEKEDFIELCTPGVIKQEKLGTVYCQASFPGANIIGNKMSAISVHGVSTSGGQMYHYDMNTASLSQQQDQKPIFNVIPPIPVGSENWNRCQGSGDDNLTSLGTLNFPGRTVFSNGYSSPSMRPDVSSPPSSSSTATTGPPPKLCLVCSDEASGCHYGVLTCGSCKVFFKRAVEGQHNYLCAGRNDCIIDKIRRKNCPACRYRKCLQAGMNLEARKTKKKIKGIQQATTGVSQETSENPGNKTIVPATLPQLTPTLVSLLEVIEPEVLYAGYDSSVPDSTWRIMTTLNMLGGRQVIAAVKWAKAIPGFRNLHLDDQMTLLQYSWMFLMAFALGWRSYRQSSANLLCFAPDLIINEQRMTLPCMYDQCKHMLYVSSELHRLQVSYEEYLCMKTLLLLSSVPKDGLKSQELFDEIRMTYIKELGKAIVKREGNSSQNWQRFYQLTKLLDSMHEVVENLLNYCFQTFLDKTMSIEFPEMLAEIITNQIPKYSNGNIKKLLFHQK
Description: Glucocorticoid receptor competitive binding assay (fluorescence polarization). To be noted: competition with TAMRA-labeled dexamethasone; read-out: potent activity in the GR binding assay (IC50). As to the method: Compounds of the invention were evaluated for binding to the steroid receptor by a fluorescence polarization competitive binding assay. Detailed descriptions for preparation of recombinant glucocorticoid receptor (GR) complex used in the assay is described in U.S. Patent Application Publication No. US 2003/0017503, filed May 20, 2002, and the corresponding U.S. provisional application No. 60/291,877, filed May 18, 2001, each of which is incorporated herein by reference in its entirety. Preparation of the tetramethyl rhodamine (TAMRA)-labeled dexamethasone probe was accomplished using a standard literature procedure (M. Pons et al., J. Steroid Biochem., 1985, 22, pp. 267-273).
A. Glucocorticoid Receptor Competitive Binding Assay
Step 1. Characterization of the Fluorescent Probe
The wavelengths for maximum excitation and emission of the fluorescent probe should first be measured. An example of such a probe is rhodamine (TAMRA)-labeled dexamethasone.
The affinity of the probe for the steroid receptor was then determined in a titration experiment. The fluorescence polarization value of the probe in assay buffer was measured on an SLM-8100 fluorometer using the excitation and emission maximum values described above. Aliquots of expression vector lysate were added and fluorescence polarization was measured after each addition until no further change in polarization value was observed. Non-linear least squares regression analysis was used to calculate the dissociation constant of the probe from the polarization values obtained for lysate binding to the probe.
Step 2. Screening for Inhibitors of Probe Binding
This assay uses fluorescence polarization (FP) to quantitate the ability of test compounds to compete with tetramethyl rhodamine (TAMRA)-labeled dexamethasone for binding to a human glucocorticoid receptor (GR) complex prepared from an insect expression system. The assay buffer was: 10 mM TES, 50 mM KCl, 20 mM Na2MoO4.2H2O, 1.5 mM EDTA, 0.04% w/v CHAPS, 10% v/v glycerol, 1 mM dithiothreitol, pH 7.4. Test compounds were dissolved to 1 mM in neat DMSO and then further diluted to 10x assay concentration in assay buffer supplemented with 10% v/v DMSO. Test compounds were serially diluted at 10x assay concentrations in 10% DMSO-containing buffer in 96-well polypropylene plates. Binding reaction mixtures were prepared in 96-well black Dynex microtiter plates by sequential addition of the following assay components to each well: 15 μL of 10x test compound solution, 85 μL of GR-containing baculovirus lysate diluted 1:170 in assay buffer, and 50 μL of 15 nM TAMRA-labeled dexamethasone. Positive controls were reaction mixtures containing no test compound; negative controls (blanks) were reaction mixtures containing 0.7 μM to 2 μM dexamethasone. The binding reactions were incubated for 1 hour at room temperature and then read for fluorescence polarization in the LJL Analyst set to 550 nm excitation and 580 nm emission, with the Rhodamine 561 dichroic mirror installed. IC50 values were determined by iterative non-linear curve fitting of the FP signal data to a 4-parameter logistic equation.
On the technique in general: Fluorescence polarisation rises when a labelled molecule tumbles more slowly, as on binding a larger partner.

In experiment [2] the test system is glucocorticoid receptor function. Nature of the experiment: Glucocorticoid receptor function, one or more of the above assays (agonist/antagonist/modulator activity). As to conditions: in one or more of the above assays. It counts as cell-based. As to the method:
B. Glucocorticoid Receptor Cell Assays
1. Induction of Aromatase in Fibroblasts (Cell Assay for Transactivation)
Dexamethasone, a synthetic ligand to the glucocorticoid receptor (GR), induces expression of aromatase in human foreskin fibroblast cells. The activity of aromatase is measured by the conversion of testosterone to estradiol in culture media.
On the day of the experiment, the media in the wells is replaced with fresh media. Cells are treated with test compounds to final concentrations of 10^−5 M to 10^−8 M, and testosterone to a final concentration of 300 ng/mL. Each well has a total volume of 100 μL. Samples are made in duplicates. Control wells include: (a) wells that receive testosterone only, and (b) wells that receive testosterone plus 2 μM of dexamethasone to provide maximum induction of aromatase. Plates are incubated at 37° C. overnight (15 to 18 hours), and supernatants are harvested at the end of incubation. […] The amount of estradiol is inversely proportional to the ELISA signals in each well. The extent of aromatase induction by test compounds is expressed as a relative percentage to dexamethasone. EC50 values of test compounds are derived by non-linear curve fitting.
2. Inhibition of IL-6 Production in Fibroblasts (Cell Assay for Transrepression)
Human foreskin fibroblast cells produce IL-6 in response to stimulation by pro-inflammatory cytokine IL-1.
On the next day, media in the wells is replaced with fresh media. Cells are treated with IL-1 (rhIL-1α, R&D Systems Cat. No. 200-LA) to a final concentration of 1 ng/mL, and with test compounds to final concentrations of 10^−5 M to 10^−8 M, in a total volume of 200 μL per well. Samples are done in duplicates. […] Positive control wells receive IL-1 only and represent maximum (or 100%) amount of IL-6 production. Plates are incubated at 37° C. overnight (15 to 18 hours), and supernatants are harvested at the end of incubation. IL-6 levels in the supernatants are determined by the ELISA kits for IL-6 (MedSystems Diagnostics GmbH, Vienna, Austria, Cat. No. BMS213TEN) according to manufacture's instructions. The extent of inhibition of IL-6 by test compounds is expressed in percentage relative to positive controls. IC50 values of test compounds are derived by non-linear curve fitting.
Evaluation of agonist or antagonist activity of compounds binding to the glucocorticoid receptor may be determined by any of the assays.
3. Modulation of Tyrosine Aminotransferase (TAT) Induction in Rat Hepatoma Cells
Testing of compounds for agonist or antagonist activity in induction of tyrosine aminotransferase (TAT) in rat hepatoma cells.
H4-II-E-C3 cells were incubated overnight in 96 well plates (20,000 cells/100 μL/well) in MEM medium containing 10% heat inactivated FBS and 1% nonessential amino acids. On the next day, cells were stimulated with the indicated concentrations of dexamethasone or test compound (dissolved in DMSO, final DMSO concentration 0.2%) for 18 hours. Control cells were treated with 0.2% DMSO. After 18 hours, the cells were lysed in a buffer containing 0.1% Triton X-100 and the TAT activity was measured in a photometric assay using tyrosine and alpha-ketoglutarate as substrates.
For measuring antagonist activity, the hepatoma cells were pre-stimulated by addition of dexamethasone (concentration ranges from 3×10^−9 M to 3×10^−8 M) shortly before the test compound was applied to the cells.
4. Modulation of MMTV-Luc Induction in HeLa Cells
Testing of compounds for agonist or antagonist activity in stimulation of MMTV-(mouse mammary tumor virus) promoter in HeLa cells.
Cells were cultured overnight in DMEM medium without phenol red, supplemented with 3% CCS (charcoal treated calf serum) and then transferred to 96 well plates (15,000 cells/100 μL/well).

Molecules are shown by their SMILES.

For the compound `CC(Cc1c[nH]c2ccccc12)NS(=O)(=O)c1c(C(C)C)cc(C(C)C)cc1C(C)C` (centres unmarked) [N-[2-(1H-Indol-3-yl)-1-methylethyl]-2,4,6-triisopropylbenzenesulfonamide], the IC50 in experiment [1] was no more than 100 nM. The “activity as antagonists of the glucocorticoid receptor function” value in experiment [2] was “activity as antagonists”.
As for `CCC(Cc1c[nH]c2ccccc12)NS(=O)(=O)c1c(Cl)cc(Cl)cc1Cl` (centres unmarked) [2,4,6-Trichloro-N-[1-(1H-indol-3-ylmethyl)propyl]benzenesulfonamide], in experiment [1], the IC50 is no more than 100 nM.
Take `CC(Cc1c[nH]c2ccccc12)NS(=O)(=O)c1c(Cl)sc(Cl)c1Br` (centres unmarked) [4-Bromo-2,5-dichlorothiophene-3-sulfonic acid [2-(1H-indol-3-yl)-1-methylethyl]amide]: the IC50 in experiment [1] is no more than 100 nM. Further, the “activity as antagonists of the glucocorticoid receptor function” value in experiment [2] is listed as “activity as antagonists”.
As for `Cc1cccc(Cl)c1S(=O)(=O)NC(C)Cc1c[nH]c2ccccc12` (centres unmarked) [2-Chloro-N-[2-(1H-indol-3-yl)-1-methylethyl]-6-methylbenzenesulfonamide], the “activity as antagonists of the glucocorticoid receptor function” value in experiment [2] is “activity as antagonists”.
Consider `CC(Cc1c[nH]c2ccccc12)NS(=O)(=O)c1c(Cl)cccc1Cl` (centres unmarked) [2,6-Dichloro-N-[2-(1H-indol-3-yl)-1-methylethyl]benzenesulfonamide], for which, in experiment [2], the “activity as antagonists of the glucocorticoid receptor function” value is on record as “activity as antagonists”.
Take `CC(Cc1c[nH]c2ccccc12)NS(=O)(=O)c1c(Cl)cc(Cl)cc1Cl` (centres unmarked) [2,4,6-Trichloro-N-[2-(1H-indol-3-yl)-1-methylethyl]benzenesulfonamide]: the IC50 in experiment [1] was no more than 100 nM. In addition, the “activity as antagonists of the glucocorticoid receptor function” value in experiment [2] is given as “activity as antagonists”.
On to `Cc1cc(C)c(S(=O)(=O)NC(C)Cc2c[nH]c3cc(F)ccc23)c(C)c1` (centres unmarked) [N-[2-(6-Fluoro-1H-indol-3-yl)-1-methylethyl]-2,4,6-trimethylbenzenesulfonamide], for which the IC50 in experiment [1] is no more than 100 nM.
The same measure, in the same setting: as for `Cc1cc(C)c(S(=O)(=O)NC(C)Cc2c[nH]c3ccc(F)cc23)c(C)c1` (centres unmarked) [N-[2-(5-Fluoro-1H-indol-3-yl)-1-methylethyl]-2,4,6-trimethylbenzenesulfonamide], the figure is no more than 100 nM; as for `CCC(Cc1c[nH]c2ccccc12)NS(=O)(=O)c1c(C)cc(C)cc1C` (centres unmarked) [N-[1-(1H-Indol-3-ylmethyl)propyl]-2,4,6-trimethylbenzenesulfonamide], no more than 100 nM.
With `Cc1cc(C)c(S(=O)(=O)NC(C)Cc2c[nH]c3ccccc23)c(C)c1` (centres unmarked) [N-[2-(1H-Indol-3-yl)-1-methylethyl]-2,4,6-trimethylbenzenesulfonamide], in experiment [1], the IC50 is no more than 100 nM. Further, the “activity as an agonist of the glucocorticoid receptor function” value in experiment [2] is “activity as an agonist”.
